These results are taken from US20060083754A1, “Pharmaceutical combinations comprising corticoids and immunosuppressants for treating corticoid- and/or calcineurin inhibitors-resistant diseases” (priority 2003, published 2006).

The experiment relates to human peripheral blood mononuclear cells (PBMC). As to the kind of experiment: T-cell proliferation assay (BrdU ELISA), PBMC stimulated with anti-CD3 mAb + anti-CD28 mAb. Type of experiment: cell-based. As to conditions: anti-CD3 mAb (0.1 μg/ml)+anti-CD28 mAb (1 μg/ml), FK 30 nM; for inhibition at 0.03 µM: Homo sapiens, PBMC. (In general: Incorporation of labelled thymidine or its analogues reports DNA synthesis.)

Setting [1] is: Example 13, 200000 cells/well, HC 10 μM, BETA 300 nM.
Where [2] appears, read: Example 14, 100000 cells/well, HC 10 μM, BETA 300 nM.
The mark [3] stands for this setting: Example 15, 200000 cells/well, DEX 300 nM, BETA 300 nM.
Setting [4] is: Example 16, 100000 cells/well, DEX 300 nM, BETA 300 nM.
The mark [5] stands for this setting: Example 17, 50000 cells/well, DEX 300 nM, BETA 300 nM.
Setting [6] is: Example 18, 100000 cells/well, DEX 300 nM.

Structures are written as SMILES.

On to `C=CC[C@@H]1/C=C(\C)C[C@H](C)C[C@H](OC)[C@H]2O[C@@](O)(C(=O)C(=O)N3CCCC[C@H]3C(=O)O[C@H](/C(C)=C/[C@@H]3CC[C@@H](O)[C@H](OC)C3)[C@H](C)[C@@H](O)CC1=O)[C@H](C)C[C@@H]2OC` [FK, tacrolimus], for which the “Normalized OD (% STIM-C)” value is 119.9 % STIM-C under setting [1]; 72.6 % STIM-C under setting [2]; 100.9 % STIM-C under setting [3]; 96.3 % STIM-C under setting [4]; 79.6 % STIM-C under setting [5]; 78.0 % STIM-C under setting [6]. For the same compound, the OD runs as follows: under setting [1], 0.921; under setting [2], 0.662; under setting [3], 0.795; under setting [4], 0.809; under setting [5], 0.838; under setting [6], 0.905. Also, the inhibition at 0.03 µM runs as follows: under setting [1], -21.9%; under setting [2], less than 31%; under setting [5], less than 26%; under setting [6], less than 25%.

Usually inhibition stands for the drop in the measured response relative to a control, in per cent.
